# From paper PMC10223284, “Category-Based Toxicokinetic Evaluations of Data-Poor Per- and Polyfluoroalkyl Substances (PFAS) using Gas Chromatography Coupled with Mass Spectrometry” (Toxics, 2023)
# Values joined by “and” are separate entries in the source; they are usually repeats but may differ in a detail not shown here. Equal entries are not always repeated. Where two headings read alike, the source gives them in different places.
# Key:
# [1] = Hepatic metabolic stability (hepatocyte clearance) assay, substrate depletion; type: in vitro ADME, human; details: both sexes, human; for half-life at 1 μM: read-out: Linear Regression Results, Best-Fit Values, Half Life
# Method in brief: (§1)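 Substrate depletion of 1 μM compound, 37 °C, with pooled human hepatocytes (50-donor, 50,000 cells/100 μL) in William's E; samples quenched in acetonitrile up to 240 min, triplicate time points. Intrinsic clearance (μL/min/million hepatocytes) and half-life derived from semi-log slope, background-adjusted using media-only and inactivated-cell controls; compounds with ≥50% abiotic loss at T120 excluded.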
# [2] = system: pooled human cryopreserved primary hepatocyte suspensions; assay: as above; type: in vitro ADME; details: for Concentration (nM), Time 0 min / Concentration (nM), Time 15 min / Concentration (nM), Time 30 min / Concentration (nM), Time 60 min / Concentration (nM), Time 120 min: hepatocyte incubation, Rep 1-3, start conc 1000 nM; for Linear Regression Results, Best-Fit Values, Slope: hepatocyte time course
# Method in brief: as §1
# [3] = Abiotic loss in negative controls of the hepatocyte clearance assay (cell-free media, metabolically inactivated hepatocytes); type: in vitro ADME; details: for half-life at 1 μM / HT BkgdCl, Slope / No Cells BkgdCl, Slope: 0 vs 240 min
# Method in brief: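 Abiotic stability was checked with media-only and inactivated-hepatocyte controls, run at T0 and T240 or, on rerun, at more time points. Compound at 1 μM, 37 °C, acetonitrile quench. Loss rates served for background subtraction, and ≥50% loss by T120 meant exclusion.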
# [4] = In vitro-in vivo extrapolation (IVIVE) to Css and administered equivalent dose (AED); set-up: species or system human; details: for Clhep: IVIVE, hepatocyte Clint scaled to whole-liver clearance; for AED: administered equivalent dose from LOEC and Css; for Fub: fub=fup/(B:P), Fub set to 1 if needed; for CLint: scaled with HPGL 110 mill cells/g, Vl 1596 g
# Procedure: Using the experimentally generated PPB (fraction unbound in plasma, fup) and hepatic Clint data, IVIVE was performed as previously described to calculate human steady-state plasma concentrations (Css). Briefly, experimental measures of fup are adjusted using blood:plasma partitioning information to estimate the fraction unbound in blood (fub). Experimental hepatocyte Clint data are scaled up to represent whole-liver clearance (L/h). […] Once estimated, these Css values are considered in conjunction with published in vitro bioactivity concentrations (i.e., lowest-observed effective concentrations, or LOECs) to calculate AEDs (Table 2). See Table S10 for all relevant IVIVE inputs, scalars, calculations, and outputs.
# human primary cells = details: cited from earlier work
# in vitro = details: both, human, plasma
# human plasma [5] = assay: Chemical stability in plasma over the UC assay time course (T5hr/T1hr); details: for PPB_Stab_Fail: flag for stability failure in the plasma protein binding assay (1 = fail, 0 = pass); for Mean Stability (T5hr/T1hr): mean over all UC runs and replicates, human plasma; for Fstable.Med: median fraction stable in plasma, UC assay Level4; for Stability (T5hr/ T1hr), Run-specific Avg: run-specific average
# Procedure: (§2) Three replicates were run per experiment, with 4NT included as a reference compound in each to evaluate assay performance. All PFAS and 4NT, prepared at a 3 mM working stock, were added to human plasma to achieve a final, thoroughly mixed assay concentration of 10 μM, incubated at 37 °C for 1 h with shaking. […] After UC, the aqueous fraction (AF; i.e., supernatant devoid of plasma proteins/lipoproteins/fatty acids) was collected and transferred to a new tube. The second aliquot maintained at 37 °C was collected (T5hr). At the relevant time points, each volume of sample was combined with 3 volumes of vigorously mixed ice-cold acetonitrile with the labeled IS and stored for 10 min at −20 °C prior to centrifugation at 12,000× g for 10 min at 4 °C. The supernatant was collected and stored at <−70 °C until quantitative analysis. […] Furthermore, chemical stability in plasma over the assay time course was assessed using the T1hr and T5hr samples.
# (§3) Percent chemical remaining at the end of the UC assay (T5hr/T1hr) was used to remove unstable chemicals from further evaluation.
# human plasma [6] = assay: Ultracentrifugation (UC) plasma protein binding assay, fraction unbound in plasma (fup); details: for fup: human plasma, 10 μM, ultracentrifugation, 37 °C; for Fup.Med: median fraction unbound in plasma; for Fup.Med / Fup.point: UC assay Level4; for Fup.point: point estimate of fraction unbound in plasma
# human plasma [7] = system: human plasma
# human plasma [8] = system: human plasma; remark: listed apart in the source
# Procedure: as §2, §3
# [9] = hepatocytes, background-subtracted, read-out: Bkgd-Sub Clearance (µL/min/106 hepatocytes)
# [10] = hepatocytes, pooled human hepatocyte suspensions, 1 μM, read-out: In Vitro Clint
# [11] = hepatocytes, unadjusted hepatocyte intrinsic clearance, read-out: Unadj in vitro Clint
# [12] = hepatocytes, hepatocyte time course, NS = slope not significant, read-out: Linear Regression Results, Best-Fit Values, Clearance
# [13] = hepatocytes, hepatocyte time course, NS = slope not significant
# [14] = both sexes, human, heat treated hepatocytes control, read-out: HT BkgdCl, Half Life
# [15] = buffer, no cells control, read-out: No Cells BkgdCl, Half Life
# [16] = flag for stability failure in hepatocyte clearance assay controls (1 or Fst = fail, 0 = pass)
# [17] = heat treated hepatocytes control
# [18] = Assuming 1 mg/kg/day dose rate, BW 70 kg
# [19] = human steady-state plasma concentration, assuming 1 mg/kg/day dosage
# [20] = BioSeek lowest-observed effect concentration used for AED
# [21] = minimum lowest-observed effect concentration, BioSeek platform
# [22] = Fraction Unbound (fu), Run-specific Avg, run-specific average
# [23] = Fraction Unbound (fu), replicate A, individual replicate A of the UC run dated in c8
# [24] = Fraction Unbound (fu), replicate B, individual replicate B of the UC run dated in c8
# [25] = Fraction Unbound (fu), replicate C, individual replicate C of the UC run dated in c8
# [26] = Mean fu, fraction unbound in human plasma, ultracentrifugation, some values based on eLOQ
# [27] = heat treated hepatocytes, Rep 1-3
smiles,measurement,setting,value
NC(=O)C(F)(F)C(F)(F)C(F)(F)C(F)(F)F [Nonafluoropentanamide],hepatocyte CLint at 1 μM,[1]; [9],26 µL/min/1e6 cells
same,hepatocyte CLint at 1 μM,"[1]; hepatocytes, hepatocyte clearance, Conc 1000 nM, not background adjusted, read-out: Unadj Clint",34.9 µL/min/1e6 cells
same,hepatocyte CLint at 1 μM,[1]; [10],26 µL/min/1e6 cells
same,hepatocyte CLint at 1 μM,[1]; [11],34.9 µL/min/1e6 cells
same,hepatocyte CLint at 1 μM,[1]; [12],34.9 µL/min/1e6 cells
same,half-life at 1 μM,[1]; [13],39.7 min
same,hepatocyte CLint at 1 μM,"[1]; s9, Bayesian analysis median, 1 μM assay concentration (Table S9), read-out: Clint.1.Med",88.7 µL/min/1e6 cells
same,"Concentration (nM), Time 0 min",[2],390.162 nM and 651.917 nM and 499.488 nM
same,"Concentration (nM), Time 15 min",[2],214.882 nM and 126.475 nM and 193.144 nM
same,"Concentration (nM), Time 30 min",[2],192.232 nM and 153.873 nM and 192.317 nM
same,"Concentration (nM), Time 60 min",[2],74.6949 nM and 76.5031 nM and 55.8443 nM
same,"Concentration (nM), Time 120 min",[2],22.6965 nM and 21.4336 nM and 13.3509 nM
same,"Linear Regression Results, Best-Fit Values, Slope",[2],-0.01747
same,half-life at 1 μM,[3]; [14],94.8 min
same,half-life at 1 μM,[3]; [15],155 min
same,Hep_Stab_Fail,[3]; [16],0
same,"HT BkgdCl, Slope",[3]; [17],-0.007311
same,"No Cells BkgdCl, Slope",[3]; no cells control,-0.004457
same,"Negative Controls, No cells (NC), concentration at 0 min",[3]; Rep 1-3,364.995 nM and 386.302 nM and 296.545 nM
same,"Negative Controls, No cells (NC), concentration at 240 min",[3]; Rep 1-3,132.756 nM and 122.614 nM and 103.779 nM
same,Css,[4]; [18],0.06 mg/L and 0.23 uM
same,Clhep,[4],47.130 L/h
same,AED,[4],31.0338 mg/kg/day
same,Fub,[4],0.3609
same,Css,[4]; [19],0.23 µM
same,CLint,[4],4569125 µL/min
same,LOEC,human primary cells; [20],7.00 µM
same,LOEC,human primary cells; [21],7 µM
same,fraction unbound,in vitro; [22],0.2
same,fraction unbound,in vitro; [23],0.228
same,fraction unbound,in vitro; [24],0.178
same,fraction unbound,in vitro; [25],0.191
same,fraction unbound,in vitro; [26],0.199
same,PPB_Stab_Fail,human plasma [5],0
same,Mean Stability (T5hr/T1hr),human plasma [5],0.975
same,Fstable.Med,human plasma [5],0.999
same,"Stability (T5hr/ T1hr), Run-specific Avg",human plasma [5],0.945
same,fup,human plasma [6],0.1985
same,Fup.Med,human plasma [6],0.192
same,Fup.point,human plasma [6],0.199
NC(=O)C(F)(F)C(F)(F)C(F)(F)C(F)(F)C(N)=O [Octafluoroadipamide],hepatocyte CLint at 1 μM,[1]; [9],2.95 µL/min/1e6 cells
same,hepatocyte CLint at 1 μM,[1]; [10],2.95 µL/min/1e6 cells
same,hepatocyte CLint at 1 μM,[1]; [11],5.29 µL/min/1e6 cells
same,hepatocyte CLint at 1 μM,[1]; [12],5.29 µL/min/1e6 cells
same,half-life at 1 μM,[1]; [13],262 min
same,"Concentration (nM), Time 0 min",[2],263.339 nM and 217.701 nM and 209.817 nM
same,"Concentration (nM), Time 15 min",[2],291.912 nM and 225.036 nM and 414.445 nM
same,"Concentration (nM), Time 30 min",[2],391.931 nM and 314.083 nM and 336.529 nM
same,"Concentration (nM), Time 60 min",[2],437.175 nM and 457.948 nM and 302.199 nM
same,"Concentration (nM), Time 120 min",[2],293.394 nM and 338.799 nM and 278.045 nM
same,"Linear Regression Results, Best-Fit Values, Slope",[2],-0.002646
same,half-life at 1 μM,[3]; [14],458 min
same,half-life at 1 μM,[3]; [15],593 min
same,Hep_Stab_Fail,[3]; [16],0
same,"HT BkgdCl, Slope",[3]; [17],-0.001514
same,"Negative Controls, Heat Treated (HT), concentration at 0 min",[3]; [27],209.171 nM and 207.599 nM and 206.567 nM
same,"Negative Controls, Heat Treated (HT), concentration at 240 min",[3]; [27],153.885 nM and 136.838 nM and 143.186 nM
same,"No Cells BkgdCl, Slope",[3]; no cells control,-0.00117
same,"Negative Controls, No cells (NC), concentration at 0 min",[3]; Rep 1-3,214.709 nM and 240.687 nM and 228.618 nM
same,"Negative Controls, No cells (NC), concentration at 240 min",[3]; Rep 1-3,175.164 nM and 151.709 nM and 191.604 nM
same,Css,[4]; [18],0.10 mg/L and 0.34 uM
same,Clhep,[4],23.099 L/h
same,AED,[4],5.8401 mg/kg/day
same,Fub,[4],1
same,Css,[4]; [19],0.34 µM
same,CLint,[4],517902 µL/min
same,LOEC,human primary cells; [20],2.00 µM
same,LOEC,human primary cells; [21],2 µM
same,fraction unbound,in vitro; [22],0.67
same,fraction unbound,in vitro; [23],0.704
same,fraction unbound,in vitro; [24],0.633
same,fraction unbound,in vitro; [25],0.732
same,fraction unbound,"in vitro; Mean Fu (fraction unbound), mean over all UC runs and replicates, human plasma",0.82
same,fraction unbound,in vitro; [26],0.82
same,PPB_Stab_Fail,human plasma [5],0
same,Mean Stability (T5hr/T1hr),human plasma [5],0.977
same,Fstable.Med,human plasma [5],0.546
same,"Stability (T5hr/ T1hr), Run-specific Avg",human plasma [5],0.982
same,fup,human plasma [6],0.8201
same,Fup.Med,human plasma [6],0.864
same,Fup.point,human plasma [6],0.834
COC(=O)C(F)(F)C(F)(F)OC(F)(C(F)(F)F)C(F)(F)OC(F)=C(F)F (centres unmarked) [Methyl perfluoro(3-(1-ethenyloxypropan-2-yloxy)propanoate)],Hep_Stab_Fail,"[3]; both, human, 120 min, 1 μM",1
same,"Aqueous Fraction, Run-specific Avg","human plasma [7]; both, human, 5 h, 10 μM",200.27
same,Fup.Med,"human plasma [7]; both, human, 5 h, 10 μM",0.0161
same,Fup.point,"human plasma [7]; both, human, 5 h, 10 μM",0.0235
same,Unstable,human plasma [8],Y
same,"Time 1 hr, Run-specific Avg","human plasma [8]; both, human, 1 h, 10 μM",11859.81
same,Fstable.Med,"human plasma [8]; both, human, 5 h, 10 μM",0.224
same,Mean Stability,"human plasma [8]; both, human, 5 h, 10 μM",0.836
same,"Stability (T5hr/ T1hr), Run-specific Avg","human plasma [8]; both, human, 5 h, 10 μM",0.726
same,"Time 5 hr, Run-specific Avg","human plasma [8]; both, human, 5 h, 10 μM",8614.65
same,PPB_Stab_Fail,"human plasma [8]; both, human, plasma, 5 h, 10 μM",1
same,"fraction unbound at 5 h, 10 μM","in vitro; Fraction Unbound (fu), Run-specific Avg",0.0232
same,"fraction unbound at 5 h, 10 μM",in vitro; Mean Fu,0.023
"C=C(C)C(=O)OCC(F)(F)C(F)(F)C(F)(F)F [1H,1H-Perfluorobutyl methacrylate]",Hep_Stab_Fail,[3]; [16],1
same,Fup.Med,human plasma [7],0.716
same,Fup.point,human plasma [7],0.706
same,Fstable.Med,human plasma [8],0.0018
same,Unstable,human plasma [8],Y
same,% remaining_PPB,"human plasma [8]; human, plasma",8%
same,PPB_Stab_Fail,"human plasma [8]; human, plasma",1
